Read-outs that look alike come from different tables or passages of the source. Positions of bridges follow the written chain, without caps; N, C: chain ends. Residues, ends and D or L forms follow the SMILES beside them. *: point of attachment. X2 = CC(CCC(C)C(=O)*)C(=O)OCC(=O)[C@@]12O[C@H](C3CCCCC3)O[C@@H]1C[C@H]1[C@@H]3CCC4=CC(=O)C=C[C@]4(C)[C@H]3[C@@H](O)C[C@@]12C
Assays:
[1] = tested on: IL-6; assay type: in vivo, rats; details: Dex 1274 and 127 nmol/kg IV; dCIC 1274 nmol/kg IA or 127 nmol/kg IV; conjugate 127, 51 and 13 nmol/kg IV; four hours after IL-1β
Experimental: In this example, an IL-1β Challenge rat model was used for the evaluation of peptides-drug conjugates. In this model, IL-1β is injected intra-articularly (i.e., IA) into a single knee joint to induce an inflammatory state that can be quantified by measuring IL-6 levels in joint lavage fluid (EXAMPLE 30). The primary goal of using this model was to induce a localized inflammatory state in the joint, as opposed to the systemic inflammation induced in other models, as a way to differentiate localized delivery of dCIC to the joint from systemic administration of the steroid. […] CBC counts were used to assess any reductions in various white blood cell levels, which are established markers of systemic exposure to glucocorticoids. […]
IL-6 was measured in knee lavage fluid using a Luminex assay and levels were normalized to total protein in the lavage fluid (FIG. 24). […] Terminal synovial fluid was collected from all animals and analyzed by Luminex 200 for IL-6 cytokine concentrations using EMD Milliplex MAP Rat Cytokine/Chemokine Magnetic Panel ([sequence]-65K). […] Thymus and spleen were harvested and their organ weights determined.

[2] = Solubility for formulation; assay type: physicochemical; details: aqueous formulation for systemic delivery
Description: This study was designed to test whether dCIC delivered by a peptide would enable local suppression of inflammation in the joint while reducing systemic exposure to dCIC compared to that obtained when dosing therapeutic levels of dCIC alone. To enable systemic delivery of dCIC (unconjugated), it was formulated in 40% propylene glycol and then heated in order to solubilize the molecule. […] The peptide-drug conjugates of the disclosure can have a water solubility that allows conjugates to be formulated for systemic delivery, wherein at least some of the drugs used in the peptide-drug conjugates may not have sufficient water solubility for systemic administration when not conjugated to peptide. The conjugates comprising those drugs can home, target, migrate to, accumulate in, bind to, be retained by, or be redirected to a cartilage of a subject.

[3] = IL-1β challenge rat model, follow-up study: WBC, lymphocyte and monocyte counts; assay type: in vivo, rats; details: 2.75 hours; peptide 127, conjugate 51 and 13 nmol/kg IV; dCIC 1274 IA, 127 and 51 IV
Experimental: This study was conducted in an identical manner to the dose-ranging study described further above in this EXAMPLE with regard to timing of test agent administration, collection of blood for CBC, injection of IL-1β, and lavage of the knee following euthanasia. In this study, the blood collected at euthanasia was submitted for both CBC and serum chemistry, and thymus and spleen weights were not measured because there was no evidence of treatment effect for dCIC and peptide-dCIC on these organs in the dose-ranging study. Assessment of biomarkers of steroid exposure in blood of rats as part of a PD study as shown in FIG. 27: # denotes dose administered by IA injection, all other treatments were administered IV. The treatment groups included the following test articles: (i) no IL-1β negative control (denoted “No IL-1b”); (ii); vehicle only control for the peptide-drug conjugate (denoted as “vehicle”), which was (5% DMSO in PBS); (iii) the peptide-only control peptide(SEQ ID NO: 105) at 127 nmol/kg (denoted over “Peptide” as “127”); (iv) 3 dose levels of dCIC, 1274 nmol/kg IA, 127 nmol/kg IV, 51 nmol/kg IV (denoted over “dCIC” as “1274 #”, “127” and “51” respectively); (v) and 2 dose levels of peptide(SEQ ID NO: 105)-DMA-dCIC (51 nmol/kg, 13 nmol/kg) (denoted over “Peptide(SEQ ID NO: 105)-DMA-dCIC” as “51” and “13” respectively), each of (i)-(v) with n=10 animals per dose group, except for no Il-1β control and peptide-only control arms which had n=6 animals per dose group. Doses are listed as nmol/kg. Statistical analysis was conducted using Wilcoxon rank-sum test with correction for multiple comparisons using Holm's method.

[4] = IL-1β challenge rat model, dose-ranging study: CBC, organ weights, tolerability; assay type: in vivo, rats
Experimental: IL-6 was measured in knee lavage fluid using a Luminex assay and levels were normalized to total protein in the lavage fluid (FIG. 24). Assessment of the PD inflammatory marker IL-6 in the knee joints of rats challenged with IL-1β was performed. Terminal synovial fluid was collected from all animals and analyzed by Luminex 200 for IL-6 cytokine concentrations using EMD Milliplex MAP Rat Cytokine/Chemokine Magnetic Panel ([…]-65K). […] Doses are listed as nmol/kg The masses of these doses are given below in TABLE 16. Two hours and forty-five minutes (i.e., 2.75 hrs) after administration of the test agents, animals were gently heated and blood was drawn from the tail vein for CBC analysis. Animals were then anesthetized with inhaled isoflurane and injected with 30 ng of IL-1β into the right knee (except for no IL-1β group). Four hours after administration of IL-1β (seven hours after administration of test agent) the animals were euthanized. Blood was drawn for a second CBC analysis and the right knee was lavaged for detection of IL-6 in the lavage fluid using a Luminex assay. Thymus and spleen were harvested and their organ weights determined.
In the same animals for which IL-6 secretion was measured, CBC data (e.g., lymphocyte counts) were also analyzed (FIG. 25) at an early time-point, 2.75 hrs post administration of the test article (FIG. 25A), and at euthanasia 7 hrs post administration (FIG. 25B). All treatments were administered as described above for the measurement of IL-6 secretion.
All treatments and test articles were administered as described above, except for an additional treatment group that received 510 nmol/kg of the peptide-drug conjugate peptide(SEQ ID NO: 105)-DMA-dCIC.

[5] = Hydrolysis assay of peptide-drug conjugates in rat plasma (free drug by LC/MS); assay type: in vitro ADME; details: rat plasma, 37° C., read-out: half-life (in vitro hydrolysis, free dCIC) (converted)
Experimental: Peptide-drug conjugate peptide(SEQ ID NO: 105)-DMA-dCIC was incubated in rat plasma at 37° C. Samples were removed at regular intervals, processed by solvent extraction, and analyzed by LC/MS to quantitate free dCIC. 11 time-points were measured between 5 min and 56 hours with 3 replicates per time point. The assay was repeated two times.
In order to determine hydrolysis rates, conjugates can be diluted in PBS, rat plasma, or human plasma and incubated at 37 degrees. Samples can be taken at designated time-points (e.g., 1, 2, 3, 5, 10, 15, 20, 25, 30, 45, 60, or 90 minutes and/or hours after administration). Internal standards such as triamcinolone acetonide (TAA) can be added as an internal standard, and then active agent/TAA can be extracted using acetonitrile, for example. The samples can be dried down, reconstituted, and analyzed by LC/MS. Data can be normalized using Dex AUC/TAA AUC. Percent hydrolysis can be calculated using the average ratio for active agent AUC/TAA AUC at a time point of maximal drug release. A general method can include using a lyophilized, purified peptide-drug conjugates reconstituted in DMSO following production to generate stock solution at 20 mg/mL. Each conjugate stock can be brought to 0.25 mg/mL in each hydrolysis condition (1×DPBS, human plasma and rat plasma) in triplicate and rocked at 37° C. To quantitate free active agent, 100 μl of the hydrolyzed conjugate solution can be transferred into 1 mL acetonitrile at 4° C. at which time all plasma proteins and intact conjugates can precipitate. This can be performed repeatedly to generate a series of time points (0 hr, 0.5 hr, 1 hr, 2 hr, 4 hr, 6 hr, 8 hr, 24 hr, 32 hr). The acetonitrile solution can be spun at 17,000 g for 5 minutes, and the supernatant removed and added to a 96 well block. The pellet can then be resuspended in 500 μl acetonitrile and re-pelleted as before. The supernatant can be removed and added to the same well in the block. Samples can be prepared for analysis by drying under a nitrogen stream followed by reconstitution in 110 μl 45:55 ACN:Citrate 10 mM pH 5.5. To ensure optimal recovery the block can be shaken via plate shaker at 7,000 rpm for 5 minutes during the reconstitution step. Prior to LC/MS the samples can be transferred to a 96 well plate and centrifuged at 6,500 g for 15 minutes. Analysis can be performed on an Agilent 1260 Infinity series HPLC with inline 6120 single quad MS using acetonitrile, water (+0.1% TFA) gradient (shown below) on an InfinityLab Poroshell SB-C18 column. Quantification of free active agent (or drug) can be achieved through integration of active agent peaks of the TIC.
Lyophilized, purified peptide-drug conjugates were reconstituted in DMSO following production to generate stock solution at 20 mg/mL. Each conjugate stock was brought to 0.25 mg/mL in each hydrolysis condition (1×DPBS, human plasma and rat plasma) in triplicate and rocked at 37° C.
To quantitate free dexamethasone (Dex), 100 μl of the hydrolyzed conjugate solution was transferred into 1 mL acetonitrile at 4° C. at which time all plasma proteins and intact conjugates precipitated. This was performed repeatedly to generate a series of time points (0 hr, 0.5 hr, 1 hr, 2 hr, 4 hr, 6 hr, 8 hr, 24 hr, 32 hr). The corticosteroid triamcinolone acetonide (25 μl, 0.1 mg/mL in 45:55 ACN:Citrate 10 mM pH 5.5) was supplemented into the acetonitrile solution as an internal standard. The acetonitrile solution was spun at 17,000 g for 5 minutes, and the supernatant removed and added to a 96 well block. The pellet was resuspended in 500 μl acetonitrile and re-pelleted as before. The supernatant was removed and added to the same well in the block.
Samples were prepared for analysis by drying under a nitrogen stream followed by reconstitution in 110 μl 45:55 ACN:Citrate 10 mM pH 5.5. To ensure optimal recovery the block was shaken via plate shaker at 7,000 rpm for 5 minutes during the reconstitution step. […]

Structure (SMILES)	IL-6 concentration in knee lavage fluid normalized to total protein, compared to vehicle [1]	solubility [2]	Total WBC counts [3]	lymphocyte counts [3]	monocyte counts [3]	monocytes (CBC) ([4]; 2.75 hours post-treatment)	Lymphocyte counts as compared to vehicle control ([4]; 2.75 hrs post administration, Dex both doses, dCIC IA or IV)	spleen and thymus weights at euthanasia ([4]; 7 hours post administration)	Lymphocyte counts at euthanasia ([4]; 7 hours post administration, all dose levels)	half-life at 0.25 mg/mL ([5]; first assay, acetonitrile extraction of dCIC) [h]	half-life at 0.25 mg/mL ([5]; second assay, ethyl acetate extraction of dCIC) [h]	neutrophils (CBC) ([4]; 2.75 hours post-treatment, higher doses)	effect on lymphocyte counts as compared to Dex and dCIC alone ([4]; 2.75 hrs post administration, equimolar dose of 127 nmol/kg)	mortality ([4]; highest dose group (1274 nmol/kg IV))	CBC counts and all observations ([4]; lower effective doses (13-51 nmol/kg))	mortality ([4]; second highest dose group (510 nmol/kg), within 30-90 minutes of dosing)
C[C@]12C=CC(=O)C=C1CC[C@@H]1[C@@H]2[C@@H](O)C[C@@]2(C)[C@H]1C[C@H]1O[C@@H](C3CCCCC3)O[C@]12C(=O)CO [dCIC, des-ciclesonide]	decrease in IL-6 concentrations	not soluble in water	substantial reduction	substantial reduction	substantial reduction	dose dependent decrease	reduction in lymphocyte counts	minimal effect on the weight of both organs	either stable or starting to recover							
CC[C@H](C)[C@@H]1NC(=O)[C@@H]2CSSC[C@H](NC(=O)[C@H](CCCNC(=N)N)NC(=O)[C@@H](NC(=O)[C@H](CC(N)=O)NC(=O)[C@@H](NC(=O)[C@@H]3CCCN3C(=O)[C@@H](NC(=O)CNC(=O)[C@H](CO)NC(=O)CNC(=O)C(C)CCC(C)C(=O)OCC(=O)[C@@]34O[C@H](C5CCCCC5)O[C@@H]3C[C@H]3[C@@H]5CCC6=CC(=O)C=C[C@]6(C)[C@H]5[C@@H](O)C[C@@]34C)C(C)C)[C@@H](C)CC)C(C)C)C(=O)N[C@@H](CCCNC(=N)N)C(=O)NCC(=O)N[C@@H](CO)C(=O)N[C@@H](CCCNC(=N)N)C(=O)N[C@@H](CC(=O)O)C(=O)N[C@H]3CSSC[C@H](NC(=O)[C@H](CCCNC(=N)N)NC(=O)[C@H](CO)NC(=O)[C@H](CC(N)=O)NC1=O)C(=O)N[C@@H](Cc1c[nH]cn1)C(=O)N[C@H](C(=O)N[C@H](C(=O)N1CCC[C@H]1C(=O)O)[C@@H](C)O)CSSC[C@H](NC(=O)[C@@H]1CCCN1C(=O)[C@H](CC(=O)O)NC(=O)[C@H](CC(C)C)NC3=O)C(=O)N[C@@H](CCCNC(=N)N)C(=O)N[C@@H](CCCNC(=N)N)C(=O)N[C@@H](C)C(=O)NCC(=O)N[C@@H](CCSC)C(=O)N[C@@H](CCCNC(=N)N)C(=O)N[C@@H](Cc1ccccc1)C(=O)NCC(=O)N[C@@H](CCCNC(=N)N)C(=O)N2 (some centres unmarked) [Compound 46, peptide(SEQ ID NO: 105)-DMA-dCIC] (X2-GSGVPINVRCRGSRDCLDPCRRAGMRFGRCINSRCHCTP-OH; disulfide 10-30, 16-35, 20-37 (inferred); C-terminus assumed)	clear reduction in IL-6 concentration	soluble in PBS				dose-dependent increase		minimal effect on the weight of both organs		8.5	5	dose-dependent increase	less effect on lymphocyte counts	died within 30 minutes of dosing	normal	three out of five animals
